The text below walks through data of PubChem BioAssay (NCI).

Each structure is given as a SMILES string.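 Following 48 hours of exposure in 96-well plates, responses at five concentrations were used to interpolate endpoints linearly. TGI is the concentration that stops growth completely.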

As a reminder, the TGI is the concentration giving total growth inhibition.

Some test systems named below: DU-145 prostate; NCI-H226 lung; IGROV1 ovarian; MDA-N; OVCAR-3 ovarian; OVCAR-8 ovarian; SK-MEL-5 melanoma; SK-OV-3 ovarian; HOP-92 NSCLC; SK-MEL-28 melanoma; UACC-62 melanoma; MCF7 breast; HCT-15 colon; KM12 colon; MDA-MB-231 breast; U251 CNS; NCI-H23 lung; SR leukemia; SF-268 CNS.
What all share (experiment): DTP human tumour cell line panel, 48 h

Regarding `CC1=C(C#N)C(=O)N(/N=C/c2ccc(Cl)cc2)C(=O)/C1=c1\o/c(=C2/C(=O)N(/N=C/c3ccc(Cl)cc3)C(=O)C(C#N)=C2C)c2nccnc12`, the concentration for total growth inhibition (TGI) with DU-145 prostate, with NCI-H226 lung, in the assay with IGROV1 ovarian, with MDA-N, in the assay on OVCAR-3 ovarian and in the assay with OVCAR-8 ovarian was above 100 µM each time. The total growth inhibition concentration (TGI) with SK-MEL-5 melanoma, in the assay with SK-OV-3 ovarian, in the assay on HOP-92 NSCLC, in the assay on SK-MEL-28 melanoma, in the assay with UACC-62 melanoma and with MCF7 breast was above 100 µM each time. The TGI with HCT-15 colon, in the assay on KM12 colon, in the assay with MDA-MB-231 breast, with U251 CNS, in the assay on NCI-H23 lung and in the assay with SR leukemia was above 100 µM in each case. In the assay with SF-268 CNS, this molecule yielded a TGI above 100 µM.
For `CC(C)[Si](OCC/C=C/C1CCC(=O)C1C(O)C1CCCCC1)(C(C)C)C(C)C` (stereo not drawn), the concentration for total growth inhibition (TGI) stood at 32 µM in the assay with DU-145 prostate; 30 µM in the assay with NCI-H226 lung; 28.5 µM with IGROV1 ovarian; 36.4 µM in the assay on MDA-N; 30.9 µM in the assay with OVCAR-3 ovarian; 28.8 µM in the assay with OVCAR-8 ovarian. The TGI in the assay on SK-MEL-5 melanoma turned out to be 29 µM; in the assay with SK-OV-3 ovarian, 30.3 µM; with HOP-92 NSCLC, 27.7 µM; in the assay with SK-MEL-28 melanoma, 29 µM; with UACC-62 melanoma, 29.7 µM; in the assay with MCF7 breast it was 34.2 µM. Besides, the TGI with HCT-15 colon is 30.6 µM; in the assay on KM12 colon, 30 µM; with MDA-MB-231 breast, 36.3 µM; in the assay with U251 CNS it was 30.9 µM; in the assay with NCI-H23 lung, 29 µM; with SR leukemia, 14.8 µM. The TGI in the assay with SF-268 CNS was 24.7 µM.
As for `CC(C)CC(=O)OC[n+]1cccc(-c2c(COC(=O)NC(C)C)c(COC(=O)NC(C)C)c3n2CCC3)c1`, the TGI in the assay with DU-145 prostate is 79.7 µM; with NCI-H226 lung, above 100 µM; with IGROV1 ovarian, above 100 µM; with MDA-N, above 100 µM; in the assay on OVCAR-3 ovarian, above 100 µM; with OVCAR-8 ovarian, above 100 µM. For the same molecule, the TGI with SK-MEL-5 melanoma was above 100 µM; in the assay with SK-OV-3 ovarian, above 100 µM; in the assay on HOP-92 NSCLC, 76.9 µM; in the assay with SK-MEL-28 melanoma, above 100 µM; with UACC-62 melanoma, above 100 µM; in the assay with MCF7 breast, above 100 µM. The TGI with HCT-15 colon, in the assay on KM12 colon, in the assay with MDA-MB-231 breast, in the assay with U251 CNS, with NCI-H23 lung and with SR leukemia was above 100 µM throughout. In the assay with SF-268 CNS, this molecule registered a TGI above 100 µM.
`CCC1=NC(N/N=C/c2ccccc2O)=N/C1=C\c1ccccc1O`: the TGI is above 64.7 µM in the assay with DU-145 prostate; above 69 µM with NCI-H226 lung; 56.9 µM in the assay with IGROV1 ovarian; above 100 µM with MDA-N; 12.6 µM with OVCAR-3 ovarian; above 69.2 µM with OVCAR-8 ovarian. Also, the TGI in the assay with SK-MEL-5 melanoma was above 100 µM; with SK-OV-3 ovarian, 76.2 µM; with HOP-92 NSCLC, above 84 µM; in the assay on SK-MEL-28 melanoma it was above 100 µM; in the assay on UACC-62 melanoma, 48.4 µM; in the assay with MCF7 breast, above 76.1 µM. In addition, the TGI in the assay with HCT-15 colon was 12.6 µM; in the assay with KM12 colon it was above 66.1 µM; with MDA-MB-231 breast, above 100 µM; with U251 CNS, above 100 µM; in the assay on NCI-H23 lung, above 74.7 µM; in the assay on SR leukemia, above 100 µM. In addition, in the assay on SF-268 CNS, the concentration for total growth inhibition (TGI) was above 66.9 µM.
`COc1c(C(=O)O)cccc1-c1cccc(C(=O)NCCN(CCNC(=O)c2cccc(-c3cccc(C(=O)O)c3OC)c2OC)CCNC(=O)c2cccc(-c3cccc(C(=O)O)c3OC)c2OC)c1OC`: the total growth inhibition concentration (TGI) in the assay on DU-145 prostate is above 100 µM; with NCI-H226 lung, above 100 µM; in the assay with IGROV1 ovarian it was above 100 µM; with MDA-N, 23.8 µM; with OVCAR-3 ovarian it was 64.6 µM; with OVCAR-8 ovarian it was above 100 µM. Further, the TGI is 37.6 µM in the assay on SK-MEL-5 melanoma; above 100 µM with SK-OV-3 ovarian; above 100 µM in the assay with HOP-92 NSCLC; above 100 µM in the assay with SK-MEL-28 melanoma; 89.7 µM in the assay with UACC-62 melanoma; above 100 µM with MCF7 breast. For the same molecule, the TGI in the assay on HCT-15 colon is above 100 µM; in the assay on KM12 colon it was above 100 µM; in the assay with MDA-MB-231 breast, above 100 µM; in the assay with U251 CNS, above 100 µM; in the assay on NCI-H23 lung, above 100 µM; in the assay with SR leukemia, 44.1 µM. In the assay with SF-268 CNS, this molecule displayed a TGI above 100 µM.
Consider `CC(=O)NNc1nc(C)c(C(/C=C/c2ccccc2O)=N/NC(=O)c2ccncc2)s1`, for which the total growth inhibition concentration (TGI) in the assay on DU-145 prostate, with NCI-H226 lung, with IGROV1 ovarian, in the assay with MDA-N, in the assay with OVCAR-3 ovarian and with OVCAR-8 ovarian was above 100 µM throughout. Moreover, the TGI in the assay on SK-MEL-5 melanoma, with SK-OV-3 ovarian, in the assay with HOP-92 NSCLC, in the assay on SK-MEL-28 melanoma, in the assay on UACC-62 melanoma and in the assay with MCF7 breast was above 100 µM each time. Moreover, the TGI in the assay on HCT-15 colon, in the assay with KM12 colon, with MDA-MB-231 breast, in the assay with U251 CNS, in the assay with NCI-H23 lung and in the assay on SR leukemia was above 100 µM in each case. This molecule also registered a TGI with SF-268 CNS above 100 µM.
As to `Cc1cc(C)n(C(=O)C(C)Sc2nnc(SC(C)C(=O)n3nc(C)cc3C)s2)n1` (stereo not drawn), the TGI with DU-145 prostate, in the assay on NCI-H226 lung, in the assay with IGROV1 ovarian, with MDA-N, in the assay with OVCAR-3 ovarian and in the assay with OVCAR-8 ovarian was above 100 µM in each case. Further, the TGI in the assay on SK-MEL-5 melanoma, with SK-OV-3 ovarian, with HOP-92 NSCLC, in the assay with SK-MEL-28 melanoma, with UACC-62 melanoma and in the assay with MCF7 breast was above 100 µM throughout. In addition, the TGI with HCT-15 colon, with KM12 colon, in the assay with MDA-MB-231 breast, in the assay on U251 CNS, in the assay with NCI-H23 lung and in the assay with SR leukemia was above 100 µM throughout. In the assay with SF-268 CNS, this molecule registered a TGI above 100 µM.
